Reference: US11427558B1, “Indazoles and azaindazoles as LRRK2 inhibitors” (ESCAPE Bio, Inc., priority 2019, dated 2022)

Legend:
[1] = target: Recombinant wild type LRRK2 protein (Homo sapiens (Human), UniProt Q5S007); experiment: LRRK2 kinase activity, LanthaScreen TR-FRET assay (wild type); type: biochemical; conditions: LRRKtide 400 nM, 25 μM ATP, 60 min; read-out: LRRK2 WT IC50
Outline: (§1)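 Recombinant human wild-type or G2019S LRRK2 phosphorylated fluorescein-labelled LRRKtide (ERM-based) with ATP and serially diluted compound for 60 min at room temperature.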

[2] = target: Recombinant G2019S-LRRK2 protein (Homo sapiens (Human), UniProt Q5S007, G2019S); experiment: LRRK2 kinase activity, LanthaScreen TR-FRET assay (G2019S); type: biochemical; conditions: LRRKtide 400 nM, 25 μM ATP, 60 min
Sequence of Recombinant G2019S-LRRK2 protein (Q5S007 whole entry G2019S): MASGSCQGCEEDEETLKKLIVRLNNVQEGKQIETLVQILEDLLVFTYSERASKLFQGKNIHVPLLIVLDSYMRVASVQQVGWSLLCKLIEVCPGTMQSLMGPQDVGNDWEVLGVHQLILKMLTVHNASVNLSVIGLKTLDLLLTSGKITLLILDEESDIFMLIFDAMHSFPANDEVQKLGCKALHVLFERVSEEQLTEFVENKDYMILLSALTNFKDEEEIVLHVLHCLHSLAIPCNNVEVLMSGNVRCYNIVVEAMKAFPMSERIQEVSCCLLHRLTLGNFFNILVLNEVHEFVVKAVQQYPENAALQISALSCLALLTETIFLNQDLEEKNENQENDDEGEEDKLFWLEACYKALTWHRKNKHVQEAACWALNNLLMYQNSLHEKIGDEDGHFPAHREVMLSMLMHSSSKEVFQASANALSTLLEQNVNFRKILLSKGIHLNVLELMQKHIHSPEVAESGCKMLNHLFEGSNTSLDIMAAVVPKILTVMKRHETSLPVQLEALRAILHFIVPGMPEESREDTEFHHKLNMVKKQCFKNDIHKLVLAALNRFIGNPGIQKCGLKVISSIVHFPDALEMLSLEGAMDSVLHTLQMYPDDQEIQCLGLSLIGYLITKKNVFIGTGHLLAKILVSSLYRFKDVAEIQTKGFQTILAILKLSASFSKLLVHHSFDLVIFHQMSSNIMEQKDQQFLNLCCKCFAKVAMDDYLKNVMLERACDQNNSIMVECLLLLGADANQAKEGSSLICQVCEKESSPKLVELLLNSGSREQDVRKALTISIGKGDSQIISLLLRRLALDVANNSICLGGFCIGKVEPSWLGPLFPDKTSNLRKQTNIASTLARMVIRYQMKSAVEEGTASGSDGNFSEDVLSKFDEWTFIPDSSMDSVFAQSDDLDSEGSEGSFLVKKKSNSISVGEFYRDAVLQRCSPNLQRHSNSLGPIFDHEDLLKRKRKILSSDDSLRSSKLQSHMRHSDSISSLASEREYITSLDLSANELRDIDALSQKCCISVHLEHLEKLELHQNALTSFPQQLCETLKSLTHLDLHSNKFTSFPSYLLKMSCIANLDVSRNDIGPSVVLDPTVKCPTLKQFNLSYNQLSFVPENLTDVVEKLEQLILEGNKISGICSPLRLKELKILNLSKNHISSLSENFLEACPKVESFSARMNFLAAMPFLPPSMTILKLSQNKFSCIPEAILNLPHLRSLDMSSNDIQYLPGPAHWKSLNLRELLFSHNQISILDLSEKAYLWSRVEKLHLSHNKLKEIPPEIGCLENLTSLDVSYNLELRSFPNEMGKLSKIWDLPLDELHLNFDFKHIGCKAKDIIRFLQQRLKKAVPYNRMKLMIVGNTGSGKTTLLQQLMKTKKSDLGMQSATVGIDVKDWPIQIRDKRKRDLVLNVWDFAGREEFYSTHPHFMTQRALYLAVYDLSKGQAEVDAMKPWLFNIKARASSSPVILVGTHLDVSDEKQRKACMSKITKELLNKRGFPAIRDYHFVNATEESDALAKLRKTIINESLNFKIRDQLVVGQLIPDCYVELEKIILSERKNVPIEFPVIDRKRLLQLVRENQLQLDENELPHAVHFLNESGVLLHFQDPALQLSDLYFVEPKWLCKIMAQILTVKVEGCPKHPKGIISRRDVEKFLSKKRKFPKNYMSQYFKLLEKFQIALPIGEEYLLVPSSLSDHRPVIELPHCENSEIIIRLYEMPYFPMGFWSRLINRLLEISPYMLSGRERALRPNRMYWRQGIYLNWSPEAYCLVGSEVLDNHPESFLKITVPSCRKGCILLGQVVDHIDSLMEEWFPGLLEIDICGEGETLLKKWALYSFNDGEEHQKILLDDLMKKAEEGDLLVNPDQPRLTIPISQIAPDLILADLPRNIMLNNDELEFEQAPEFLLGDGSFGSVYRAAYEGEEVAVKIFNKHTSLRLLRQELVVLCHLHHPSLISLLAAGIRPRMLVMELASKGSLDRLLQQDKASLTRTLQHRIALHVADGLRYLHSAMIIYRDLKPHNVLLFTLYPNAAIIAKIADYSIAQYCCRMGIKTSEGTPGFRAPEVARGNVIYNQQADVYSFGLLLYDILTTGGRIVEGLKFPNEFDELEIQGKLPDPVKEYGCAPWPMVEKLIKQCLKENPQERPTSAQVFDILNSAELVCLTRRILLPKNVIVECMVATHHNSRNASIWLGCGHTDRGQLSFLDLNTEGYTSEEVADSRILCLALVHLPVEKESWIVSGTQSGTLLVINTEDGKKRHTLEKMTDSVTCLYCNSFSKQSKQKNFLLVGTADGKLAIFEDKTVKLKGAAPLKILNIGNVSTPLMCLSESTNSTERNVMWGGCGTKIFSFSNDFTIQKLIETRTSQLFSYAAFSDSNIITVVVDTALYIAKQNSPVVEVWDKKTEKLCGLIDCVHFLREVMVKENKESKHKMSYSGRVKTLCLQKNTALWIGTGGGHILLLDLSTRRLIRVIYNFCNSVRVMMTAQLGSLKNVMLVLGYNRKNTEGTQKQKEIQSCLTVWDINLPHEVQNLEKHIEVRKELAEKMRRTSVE
Outline: as §1

Sequence of Recombinant wild type LRRK2 protein (Q5S007 whole entry): as the sequence (Q5S007 whole entry G2019S) above, with S2019G counted along it

Structure (SMILES)	IC50 [1]	IC50 [2]
Cc1cc(C#N)cnc1C(=O)Nc1ccc2[nH]nc(N3CCC3)c2c1 [Example 253, N-(3-(Azetidin-1-yl)-1H-indazol-5-yl)-5-cyano-3-methylpicolinamide]	1000 to 10000 nM	100 to 1000 nM
Cc1cc(C#N)cnc1C(=O)Nc1ccc2[nH]nc(N3CC(F)(F)C3)c2c1 [Example 254, 5-Cyano-N-(3-(3,3-difluoroazetidin-1-yl)-1H-indazol-5-yl)-3-methylpicolinamide]	1000 to 10000 nM	100 to 1000 nM
Cc1cc(C#N)cnc1C(=O)Nc1ccc2[nH]nc(OCc3ccccc3)c2c1 [Example 255, N-(3-(Benzyloxy)-1H-indazol-5-yl)-5-cyano-3-methylpicolinamide]	100 to 1000 nM	< 100 nM
Cc1cc(C#N)cnc1C(=O)Nc1ccc2[nH]nc(C3COC3)c2c1 [Example 256, 5-Cyano-3-methyl-N-(3-(oxetan-3-yl)-1H-indazol-5-yl)picolinamide]	1000 to 10000 nM	1000 to 10000 nM
Cc1c(C#N)cnc(C(=O)Nc2ccc3[nH]nc(C4CC4(C)C)c3c2)c1C (centres unmarked) [Example 257, 5-Cyano-N-(3-(2,2-dimethylcyclopropyl)-1H-indazol-5-yl)-3,4-dimethylpicolinamide]	1000 to 10000 nM	1000 to 10000 nM
COc1cc(C(=O)Nc2ccc3[nH]nc(-c4cnco4)c3c2)nc(C)c1C#N [Example 258, 5-Cyano-4-methoxy-6-methyl-N-(3-(oxazol-5-yl)-1H-indazol-5-yl)picolinamide]	1000 to 10000 nM	< 100 nM
Cc1c(C#N)cnc(C(=O)Nc2ccc3[nH]nc(C=C4CCN(C(=O)OC(C)(C)C)CC4)c3c2)c1C [Example 259, tert-butyl 4-((5-(5-Cyano-3,4-dimethylpicolinamido)-1H-indazol-3-yl)methylene)piperidine-1-carboxylate]	> 10000 nM	> 10000 nM
Cc1c(C#N)cnc(C(=O)Nc2ccc3[nH]nc(C=C4CCNCC4)c3c2)c1C [Example 260, 5-Cyano-3,4-dimethyl-N-(3-(piperidin-4-ylidenemethyl)-1H-indazol-5-yl)picolinamide]	> 10000 nM	1000 to 10000 nM
Cc1c(C#N)cnc(C(=O)Nc2ccc3[nH]nc(/C=C4/CCOC4)c3c2)c1C [Example 261, (Z)-5-Cyano-N-(3-((dihydrofuran-3(2H)-ylidene)methyl)-1H-indazol-5-yl)-3,4-dimethylpicolinamide]	1000 to 10000 nM	< 100 nM
Cc1c(C#N)cnc(C(=O)Nc2ccc3[nH]nc(C=C4CCOCC4)c3c2)c1C [Example 262, 5-Cyano-3,4-dimethyl-N-(3-((tetrahydro-4H-pyran-4-ylidene)methyl)-1H-indazol-5-yl)picolinamide]	1000 to 10000 nM	1000 to 10000 nM
Cc1c(C#N)cnc(C(=O)Nc2ccc3[nH]nc(C=C4COC4)c3c2)c1C [Example 263, 5-Cyano-3,4-dimethyl-N-(3-(oxetan-3-ylidenemethyl)-1H-indazol-5-yl)picolinamide]	1000 to 10000 nM	100 to 1000 nM
COCc1n[nH]c2ccc(NC(=O)c3ncc(C#N)c(C)c3C)cc12 [Example 264, 5-Cyano-N-(3-(methoxymethyl)-1H-indazol-5-yl)-3,4-dimethylpicolinamide]	1000 to 10000 nM	100 to 1000 nM
Cc1c(C#N)cnc(C(=O)Nc2ccc3[nH]nc(C4CC4C(F)(F)F)c3c2)c1C (centres unmarked) [Example 265, 5-Cyano-3,4-dimethyl-N-(3-(2-(trifluoromethyl)cyclopropyl)-1H-indazol-5-yl)picolinamide]	1000 to 10000 nM	100 to 1000 nM
Cc1c(C#N)cnc(C(=O)Nc2ccc3[nH]nc(/C=C/C(F)(F)F)c3c2)c1C [Example 266, (E)-5-Cyano-3,4-dimethyl-N-(3-(3,3,3-trifluoroprop-1-en-1-yl)-1H-indazol-5-yl)picolinamide]	100 to 1000 nM	< 100 nM
C=C(C)c1n[nH]c2ccc(NC(=O)c3ncc(C#N)c(C)c3C)cc12 [Example 267, 5-Cyano-3,4-dimethyl-N-(3-(prop-1-en-2-yl)-1H-indazol-5-yl)picolinamide]	100 to 1000 nM	< 100 nM
Cc1c(C#N)cnc(C(=O)Nc2ccc3[nH]nc(C4(C)CC4)c3c2)c1C [Example 268, 5-Cyano-3,4-dimethyl-N-(3-(1-methylcyclopropyl)-1H-indazol-5-yl)picolinamide]	1000 to 10000 nM	100 to 1000 nM
COC(C)c1n[nH]c2ccc(NC(=O)c3ncc(C#N)c(C)c3C)cc12 (centres unmarked) [Example 269, 5-Cyano-N-(3-(1-methoxyethyl)-1H-indazol-5-yl)-3,4-dimethylpicolinamide]	> 10000 nM	1000 to 10000 nM
Cc1c(C(=O)Nc2ccc3[nH]nc(C(C)C)c3c2)nc(Cl)c(C#N)c1C [Example 270, 6-Chloro-5-cyano-N-(3-isopropyl-1H-indazol-5-yl)-3,4-dimethylpicolinamide]	< 100 nM	< 100 nM
CCc1n[nH]c2ccc(NC(=O)c3nc(Cl)c(C#N)c(C)c3C)cc12 [Example 271, 6-Chloro-5-cyano-N-(3-ethyl-1H-indazol-5-yl)-3,4-dimethylpicolinamide]	< 100 nM	< 100 nM

Structure (SMILES)	IC50 [1]	IC50 [2]
Cc1cc(C#N)cnc1C(=O)Nc1ccc2[nH]nc(-c3ccnnc3)c2c1 [Example 272, 5-Cyano-3-methyl-N-(3-(pyridazin-4-yl)-1H-indazol-5-yl)picolinamide]	100 to 1000 nM	< 100 nM
Cc1cc(-c2n[nH]c3ccc(NC(=O)c4ncc(C#N)cc4C)cc23)cnn1 [Example 273, 5-Cyano-3-methyl-N-(3-(6-methylpyridazin-4-yl)-1H-indazol-5-yl)picolinamide]	100 to 1000 nM	< 100 nM
C=C(C)c1c(C#N)cccc1C(=O)Nc1ccc2[nH]nc(C)c2c1 [Example 274, 3-Cyano-N-(3-methyl-1H-indazol-5-yl)-2-(prop-1-en-2-yl)benzamide]	1000 to 10000 nM	< 100 nM
Cc1nc(C(=O)Nc2ccc3[nH]nc(C)c3c2)c(Cl)c(C)c1C#N [Example 275, 3-Chloro-5-cyano-4,6-dimethyl-N-(3-methyl-1H-indazol-5-yl)picolinamide]	100 to 1000 nM	< 100 nM
Cc1c(C#N)cnc(C(=O)Nc2ccc3[nH]nc(C=C4CCC4)c3c2)c1C [Example 276, 5-Cyano-N-(3-(cyclobutylidenemethyl)-1H-indazol-5-yl)-3,4-dimethylpicolinamide]	100 to 1000 nM	< 100 nM
Cc1c(C#N)cnc(C(=O)Nc2ccc3[nH]nc(-c4ccnc(N5CCOCC5)c4)c3c2)c1C [Example 277, 5-Cyano-3,4-dimethyl-N-(3-(2-morpholinopyridin-4-yl)-1H-indazol-5-yl)picolinamide]	< 100 nM	< 100 nM
Cc1c(C(=O)Nc2ccc3[nH]nc(-c4ccnc(N5CCOCC5)c4)c3c2)nc(Cl)c(C#N)c1C [Example 278, 6-Chloro-5-cyano-3,4-dimethyl-N-(3-(2-morpholinopyridin-4-yl)-1H-indazol-5-yl)picolinamide]	< 100 nM	< 100 nM
CCc1cc(-c2n[nH]c3ccc(NC(=O)c4ncc(C#N)c(C)c4C)cc23)ccn1 [Example 279, 5-Cyano-N-(3-(2-ethylpyridin-4-yl)-1H-indazol-5-yl)-3,4-dimethylpicolinamide]	< 100 nM	< 100 nM
Cc1c(C#N)cnc(C(=O)Nc2ccc3[nH]nc(-c4cccn(C)c4=O)c3c2)c1C [Example 280, 5-Cyano-3,4-dimethyl-N-(3-(1-methyl-2-oxo-1,2-dihydropyridin-3-yl)-1H-indazol-5-yl)picolinamide]	1000 to 10000 nM	1000 to 10000 nM
Cc1c(C#N)cnc(C(=O)Nc2ccc3[nH]nc(/C=C/c4ccncc4)c3c2)c1C [Example 281, (E)-5-Cyano-3,4-dimethyl-N-(3-(2-(pyridin-4-yl)vinyl)-1H-indazol-5-yl)picolinamide]	< 100 nM	< 100 nM
C/C=C/c1n[nH]c2ccc(NC(=O)c3nc(Cl)c(C#N)c(C)c3C)cc12 [Example 282, (E)-6-chloro-5-cyano-3,4-dimethyl-N-(3-(prop-1-en-1-yl)-1H-indazol-5-yl)picolinamide]	< 100 nM	< 100 nM
Cc1nc(C(=O)Nc2ccc3[nH]nc(C4CC4)c3c2)c(Cl)c(C)c1C#N [Example 283, 3-chloro-5-cyano-N-(3-cyclopropyl-1H-indazol-5-yl)-4,6-dimethylpicolinamide]	100 to 1000 nM	< 100 nM
CCc1n[nH]c2ccc(NC(=O)c3ncc(C#N)c(C(F)(F)F)c3C)cc12 [Example 284, 5-Cyano-N-(3-ethyl-1H-indazol-5-yl)-3-methyl-4-(trifluoromethyl)picolinamide]	1000 to 10000 nM	< 100 nM
COc1n[nH]c2ccc(NC(=O)c3ncc(C#N)c(C(F)(F)F)c3C)cc12 [Example 285, 5-Cyano-N-(3-methoxy-1H-indazol-5-yl)-3-methyl-4-(trifluoromethyl)picolinamide]	1000 to 10000 nM	< 100 nM
Cc1c(C(=O)Nc2ccc3[nH]nc(C4CC4)c3c2)ncc(C#N)c1C(F)(F)F [Example 286, 5-Cyano-N-(3-cyclopropyl-1H-indazol-5-yl)-3-methyl-4-(trifluoromethyl)picolinamide]	1000 to 10000 nM	< 100 nM
COc1n[nH]c2ccc(NC(=O)c3nc(C)c(C#N)c(C)c3C)cc12 [Example 287, 5-Cyano-N-(3-methoxy-1H-indazol-5-yl)-3,4,6-trimethylpicolinamide]	100 to 1000 nM	< 100 nM
Cc1cc(C#N)c(C(F)(F)F)nc1C(=O)Nc1ccc2[nH]nc(-c3cnco3)c2c1 [Example 288, 5-Cyano-3-methyl-N-(3-(oxazol-5-yl)-1H-indazol-5-yl)-6-(trifluoromethyl)picolinamide]	< 100 nM	< 100 nM
Cc1c(C(=O)Nc2ccc3[nH]nc(-c4cnco4)c3c2)ncc(C#N)c1C(F)(F)F [Example 289, 5-Cyano-3-methyl-N-(3-(oxazol-5-yl)-1H-indazol-5-yl)-4-(trifluoromethyl)picolinamide]	< 100 nM	< 100 nM
